The results in this text go back to ChEMBL document CHEMBL5512599, “Synthetic non-toxic anti-biofilm agents as a strategy in combating bacterial resistance” (Eur J Med Chem, 2023).

The subject of assay [1] is Staphylococcus epidermidis. The assay can be described thus: Antibiofilm activity against Staphylococcus epidermidis clinical isolate 519/12 assessed as inhibition of biofilm formation measured after 24 hrs by confocal laser scanning microscopy analysis. It is filed as functional, organism-based.
Assay [2] relates to Staphylococcus epidermidis. The assay can be described thus: Antibacterial activity against Staphylococcus epidermidis clinical isolate 532/12 assessed as reduction in bacterial growth measured after 24 hrs by CLSI based broth micro-dilution method. It is filed as functional. Background: Dilution methods test growth across graded concentrations, often in twofold steps.
Assay [3] relates to Staphylococcus epidermidis. Briefly: Antibiofilm activity against Staphylococcus epidermidis clinical isolate 526/12 assessed as inhibition of biofilm formation measured after 24 hrs by confocal laser scanning microscopy analysis. It counts as functional, organism-based.
The subject of assay [4] is Staphylococcus epidermidis. The assay can be described thus: Antibiofilm activity against Staphylococcus epidermidis clinical isolate 523/12 assessed as inhibition of biofilm formation measured after 24 hrs by confocal laser scanning microscopy analysis. It counts as functional, organism-based.
Assay [5] concerns Staphylococcus epidermidis. Briefly: Antibacterial activity against Staphylococcus epidermidis clinical isolate 533/12 assessed as reduction in bacterial growth measured after 24 hrs by CLSI based broth micro-dilution method. It is filed as functional.
For assay [6], the system named is Staphylococcus epidermidis. Briefly: Antibacterial activity against Staphylococcus epidermidis clinical isolate 531/12 assessed as reduction in bacterial growth measured after 24 hrs by CLSI based broth micro-dilution method. It is filed as functional.
For assay [7], the system named is Staphylococcus epidermidis. The assay can be described thus: Antibacterial activity against Staphylococcus epidermidis clinical isolate 528/12 assessed as reduction in bacterial growth measured after 24 hrs by CLSI based broth micro-dilution method. It counts as functional.
In assay [8] the test system is Staphylococcus epidermidis. The assay can be described thus: Antibiofilm activity against Staphylococcus epidermidis ATCC 12228 assessed as inhibition of biofilm formation measured after 24 hrs by confocal laser scanning microscopy analysis. It is filed as functional, organism-based. The following applies: ATCC 12228, 24 h.
Assay [9] deals with Staphylococcus epidermidis. Briefly: Antibacterial activity against Staphylococcus epidermidis clinical isolate 517/12 assessed as reduction in bacterial growth measured after 24 hrs by CLSI based broth micro-dilution method. It is filed as functional.
Assay [10] has as its system Staphylococcus epidermidis. The assay can be described thus: Antibiofilm activity against Staphylococcus epidermidis clinical isolate 517/12 assessed as inhibition of biofilm formation measured after 24 hrs by confocal laser scanning microscopy analysis. It counts as functional, organism-based.
The test system of assay [11] is Staphylococcus epidermidis. The assay can be described thus: Antibiofilm activity against Staphylococcus epidermidis clinical isolate 531/12 assessed as inhibition of biofilm formation measured after 24 hrs by confocal laser scanning microscopy analysis. It counts as functional, organism-based.
For assay [12], the system named is Staphylococcus epidermidis. The assay can be described thus: Antibiofilm activity against Staphylococcus epidermidis clinical isolate 528/12 assessed as inhibition of biofilm formation measured after 24 hrs by confocal laser scanning microscopy analysis. It is filed as functional, organism-based.
The subject of assay [13] is Staphylococcus epidermidis. The assay can be described thus: Antimicrobial activity against Staphylococcus epidermidis ATCC 12228 assessed as reduction in microbial growth after 24 hrs by CLSI based broth microdilution method. It is filed as functional.
In assay [14] the test system is Staphylococcus epidermidis. Briefly: Antimicrobial activity against Staphylococcus epidermidis ATCC 35984 assessed as reduction in microbial growth after 24 hrs by CLSI based broth microdilution method. It counts as functional.
The subject of assay [15] is Staphylococcus epidermidis. The assay can be described thus: Antibiofilm activity against Staphylococcus epidermidis clinical isolate 532/12 assessed as inhibition of biofilm formation measured after 24 hrs by confocal laser scanning microscopy analysis. It counts as functional, organism-based.
Assay [16] relates to Staphylococcus epidermidis. Briefly: Antibiofilm activity against Staphylococcus epidermidis clinical isolate 533/12 assessed as inhibition of biofilm formation measured after 24 hrs by confocal laser scanning microscopy analysis. It counts as functional, organism-based.
For assay [17], the system named is Klebsiella pneumoniae. The assay can be described thus: Antibacterial activity against Klebsiella pneumoniae ATCC 13882 assessed as fold change in colistin MIC incubated for 16 to 18 hrs by broth microdilution method. It is filed as functional. To be noted: time 16-18 hrs.
Assay [18] relates to Klebsiella pneumoniae. Briefly: Antibiofilm activity against Klebsiella pneumoniae ATCC 13882 assessed as inhibition of biofilm formation incubated for 24 hrs by crystal violet staining based broth microdilution method. It counts as functional, organism-based. The following applies: ATCC 13882, 24 h.
Assay [19] concerns Staphylococcus aureus. Briefly: Antibacterial activity against methicillin-sensitive Staphylococcus aureus ATCC 29213 assessed as reduction in bacterial growth incubated for 18 hrs by mueller hinton broth dilution method. To be noted: ATCC 29213, 18 h. It counts as functional, organism-based.
The subject of assay [20] is Staphylococcus aureus. The assay can be described thus: Antibiofilm activity against Methicillin-sensitive Staphylococcus aureus ATCC 29213 assessed as reduction in biofilm formation at 200 uM incubated for 24 hrs by crystal violet staining based analysis relative to control. It counts as functional. The arrangement: scale not given: the % may be the effect or the level left.

A short description of assay [21]: Inhibition of Staphylococcus aureus sortase A by FRET assay.
Assay [22] deals with Staphylococcus aureus. Briefly: Antibacterial activity against Staphylococcus aureus ATCC 29213 assessed as reduction in bacterial growth incubated for 18 to 24 hrs by broth microdilution method. It counts as functional. The following applies: time 18-24 hrs.
Assay [23] deals with Staphylococcus epidermidis. The assay can be described thus: Antibacterial activity against Staphylococcus epidermidis RP62A assessed as reduction in bacterial growth incubated for 18 to 20 hrs by broth microdilution assay. It is filed as functional. The following applies: time 18-20 hrs.
The test system of assay [24] is Staphylococcus aureus. Briefly: Antibiofilm activity against Staphylococcus aureus ATCC 25923 after 24 hrs by crystal violet staining based assay. It is filed as functional.
Assay [25] has as its system Staphylococcus aureus. Briefly: Antibacterial activity against Staphylococcus aureus ATCC 25923 assessed as reduction in bacterial growth incubated for 18 to 24 hrs by broth microdilution method. It is filed as functional. To be noted: time 18-24 hrs.
In assay [26] the test system is Staphylococcus aureus. Briefly: Antibacterial activity against Staphylococcus aureus ATCC 6538 assessed as reduction in bacterial growth incubated for 18 to 24 hrs by broth microdilution method. To be noted: time 18-24 hrs. It is filed as functional.
The test system of assay [27] is Staphylococcus aureus. The assay can be described thus: Antibacterial activity against […] Staphylococcus aureus ATCC 29213 assessed as reduction in bacterial growth incubated for 18 hrs by mueller hinton broth dilution method. It is filed as functional, organism-based. The following applies: ATCC 29213, 18 h.

Converted amounts (≈) assume the structure as drawn.

Usually IC50 stands for the concentration that inhibits the measured activity by half. The MIC is the lowest concentration that inhibits growth of the organism. For the molecule `Fc1ccc(NC(=S)Nc2nccs2)cc1Cl`, the IC50 in assay [1] worked out at 2.5 µg/mL (≈ 8.69 µM); in [3], 4.95 µg/mL (≈ 17.2 µM); in assay [4] it was 3.14 µg/mL (≈ 10.9 µM); in assay [8], 0.35 µg/mL (≈ 1.22 µM); in [10] it was 0.66 µg/mL (≈ 2.29 µM); in assay [11] it was 1.13 µg/mL (≈ 3.93 µM). Also, the IC50 in assay [12] is 1.11 µg/mL (≈ 3.86 µM); in assay [15], 2.21 µg/mL (≈ 7.68 µM); in assay [16] it was 2.88 µg/mL (≈ 10 µM). Besides, the MIC in assay [2] is 4 µg/mL (≈ 13.9 µM); in assay [5] it was 4 µg/mL (≈ 13.9 µM); in assay [6] it was 4 µg/mL (≈ 13.9 µM); in [7], 8 µg/mL (≈ 27.8 µM); in assay [9], 8 µg/mL (≈ 27.8 µM); in assay [13], 4 µg/mL. Further, the MIC in [14] was determined as 4 µg/mL.
Take `Nc1nccc(-c2cccc(NC(=O)c3cc(Br)cc(Br)c3)c2)n1`: the “fold change (FC)” value in the assay with Klebsiella pneumoniae [17] worked out at 32. Moreover, the IC50 in the assay on Klebsiella pneumoniae [18] was 17.4 µM.
On to `CCCCCCCCCC(=O)NCCCc1cnc(N)nc1`, for which, in the assay with Staphylococcus aureus [19], the IC50 was determined as 67 µM. Besides, the Activity in the assay with Staphylococcus aureus [20] was determined as 80%.
`CC(=O)/C(=N\Nc1ccccc1)C(=O)O`: inhibition in [21] was half-maximal at 80 µM (IC50). The MIC (with Staphylococcus aureus [22]; in assay [23]; in the assay with Staphylococcus aureus [25]; in the assay on Staphylococcus aureus [26]) was > 270 µM in each case. In the assay on Staphylococcus aureus [24], this molecule showed an Activity of 60%.
With `Nc1ncc(C#CC2CCCC2)cn1`, in the assay on Staphylococcus aureus [27], the IC50 stood at 72 µM. Besides, the Activity with Staphylococcus aureus [20] was found to be 85%.
